From patent US8008094B2, “Methods for analyzing interactions between proteins and sugar chains” (National Institute of Advanced Industrial Science and …, priority 2003, dated 2011) come the findings set out here.

Assay [1] concerns binding of Cy3-ASF to lectin spots. Description: Inhibition of lectin-sugar chain interaction on lectin array by competitively inhibiting sugar (Example 1). The conditions noted are these: Cy3-ASF probe, increasing inhibiting sugar concentration.
Assay [2] concerns glycoprotein probe derived from mouse brain. Description: Lectin array (40 lectins) with crude brain-derived glycoprotein probe plus inhibiting sugar (Example 7). The following applies: 10 mM inhibiting sugar added to brain-derived glycoprotein probe, FIG. 14C. Type of assay: binding. The procedure:
A glycoprotein sample extracted and purified from mouse liver and a glycoprotein sample extracted and purified from mouse brain were labeled with Cy3 to form probes, then contacted with a lectin array onto which 40 types of lectins were immobilized, and the sugar chain profile of the entire extracted mouse glycoprotein mixture was observed. Next, 10 mM of lactose was added as a competitively inhibiting sugar to the brain-derived glycoprotein probe used in the previous experiment, and the sugar chain profile was observed (FIG. 14C). […] As shown by this experiment, even when using a lectin array for the sugar chain profiling of cruder samples, comparisons and analyses between individuals can be made easier and faster by the combined use of addition experiments that use various inhibiting sugars, and comparison and analysis after narrowing down the obtained data.

As for `OC[C@H]1O[C@@H](O[C@H]2[C@H](O)[C@@H](O)C(O)O[C@@H]2CO)[C@H](O)[C@@H](O)[C@H]1O` (some centres unmarked) [lactose], the “fluorescence intensity of the spots in the presence of inhibiting sugar” value in assay [1] is recorded as “decreases as the concentration of lactose (competitively inhibiting sugar) increases”. Also, in assay [2], the “change of fluorescence signal pattern due to competitive inhibition” value is recorded as “reduction was observed mainly in the signals of lactosamine-recognizing lectins”.
